These results are taken from patent US6156724A, “Uses of didemnins as immunomodulating agents” (priority 1998, dated 2000).

Series [1] deals with Balb/c splenocytes (resting lymphocytes). As to the kind of experiment: Lymphocyte viability (LcV) assay. The class given is cell-based, murine. The following applies: unstimulated Balb/c splenocytes, MTT. The procedure:
Forty two (42) didemnin compounds (see Table 1) were evaluated for cytotoxicity to one of the lymphocyte populations in the MLR (i.e., Balb/c splenocytes). The purpose of the lymphocyte viability assay (LcV) is to measure metabolic activity in lymphocytes after they have been exposed to the compounds for the duration of an under conditions equivalent to the MLR. The inverse of the data yields cytotoxicity information about the compounds on murine lymphocytes. The rationale of using resting cells, in this case unstimulated lymphocytes, to measure cytotoxicity has a strategic importance. In the MLR the heterogenous cell populations are predominantly resting cells when the assay begins.
Test compounds were prepared in two sets as described above. Splenocytes were prepared as described previously from one murine strain (Balb/c), and a volume of 200 μL of the cell suspension was added to one set of test compounds and control wells.
Assay plates were incubated as in the MLR and then pulsed overnight 75 μL per well MTT-thiazolyl blue solution (150 μg). The plates were decanted and the resulting insoluble formazan crystals were dissolved in 200 μL of isopropyl alcohol. Absorbance at 570 nm was measured.
The LcV data were calculated as a percentage of basal metabolic activity, or percent viability, relative to BALB/c control, and an LC50 value was interpolated for each test compound.

In series [2] the test system is murine splenocytes (Balb/c and C57B1/6). Put plainly: Two-way mixed lymphocyte reaction (MLR) assay.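 As to all read-outs here: proliferation read as tritiated thymidine incorporation into newly made DNA after an overnight pulse, expressed as percent of control activity, IC50 interpolated per compound.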 As to conditions: Balb/c + C57B1/6 splenocytes, 96 h, [3H]thymidine; for pIC50: read-out: two-way mixed lymphocyte reaction (MLR) suppression MLR, IC50.
For series [3], the system named is concanavalin A-induced lymphoblasts (Con A splenocytes). As to the kind of experiment: Lymphoblast viability (LbV) assay. The following applies: Con A-stimulated splenocytes (lymphoblasts), MTT.

pIC50: −log10 of the molar value. Numbered stars: 1 amine (or outer) side, 2 acyl side, 3 side chain; on linkers, the order of the positions; unused ones are H or OH. Bridge positions count the residues as written; N and C are the ends. Square brackets hold non-standard residues; d marks the D form. Peptide text beside a SMILES is read from it. * marks the point of attachment. X1 = CC[C@H](C)[C@@H](N[*:1])[C@@H](O)CC(=O)O[C@H](C(=O)[C@H](C)C(=O)[*:2])C(C)C; X7 = CCC(C)C(N[*:1])C(O)CC(=O)OC(C(=O)C(C)C(=O)[*:2])C(C)C; NMeY = CN[CH](Cc1ccc(O)cc1)C(=O)O; Stearoyl = CCCCCCCCCCCCCCCCCC(=O)*; dNMeL = CN[C@H](CC(C)C)C(=O)O; Lauroyl = CCCCCCCCCCCC(=O)*; NMeL = CN[CH](CC(C)C)C(=O)O; Octanoyl = CCCCCCCC(=O)*; Hexanoyl = CCCCCC(=O)*; Pentanoyl = CCCCC(=O)*; Propionyl = CCC(=O)*; Butyryl = CCCC(=O)*

For orientation: pIC50 means −log10 of the IC50, conventionally taken in molar units. Regarding `CC[C@H](C)[C@H]1NC(=O)[C@@H](NC(=O)[C@@H](CC(C)C)N(C)C(=O)[C@@H]2CCCN2C(=O)[C@H](C)O)[C@@H](C)OC(=O)[C@H](Cc2ccc(OC)c(I)c2)N(C)C(=O)[C@@H]2CCCN2C(=O)[C@H](CC(C)C)NC(=O)[C@@H](C)C(=O)[C@H](C(C)C)OC(=O)C[C@@H]1O` [Compound 14, Iododidemnin B], the “cytoxicity to lymphocytes LcV, LC50” value in series [1] is > 8100 nM. For the same compound, the “cytoxicity to lymphocytes LcV, LC50” value in series [1] (highest concentration 10 μg/mL) is > 10 µg/mL. Besides, in series [2], the “two-way mixed lymphocyte reaction (MLR) suppression MLR, IC50” value (shortened to “two-way mixed lymphocyte reaction”) came out at 0.81 ng/mL and the pIC50 is 9.18. For the same compound, the “cytotoxicity to lymphocytes LbV, LC50” value in series [3] came to 0.82 nM.
For `CC[C@H](C)[C@H]1NC(=O)[C@@H](NC(=O)[C@@H](CC(C)C)N(C)C(=O)[C@@H]2CCCN2C(=O)[C@H](C)O)[C@@H](C)OC(=O)[C@H](CC2CCCCC2)N(C)C(=O)[C@@H]2CCCN2C(=O)[C@H](CC(C)C)NC(=O)[C@@H](C)C(=O)[C@H](C(C)C)OC(=O)C[C@@H]1O` [Compound 16, [H6 -N-MePhe^6]Didemnin B] the same measures were > 9200 nM, > 10 µg/mL, 0.57 ng/mL, 9.28 and 0.73 nM.
For `CC[C@H](C)[C@@H](NC(=O)[C@@H](NC(=O)[C@@H](CC(C)C)NC)[C@@H](C)O)[C@@H](O)CC(=O)O[C@H](C(=O)[C@H](C)C(=O)N[C@@H](CC(C)C)C(=O)N1CCC[C@H]1C(=O)N(C)[C@@H](Cc1ccc(OC)cc1)C(=O)O)C(C)C` [Compound 17, Acyclodidemnin A] (H-[dNMeL]T[X1]LP[NMeY](Me)-OH) the same measures were > 10400 nM, > 10 µg/mL, 0.54 ng/mL, 9.24 and 240 nM.
On the same counts, the results for `CC[C@H](C)[C@H]1NC(=O)[C@@H](NC(=O)[C@@H](CC(C)C)N(C)C(C)=O)[C@@H](C)OC(=O)[C@H](Cc2ccc(OC)cc2)N(C)C(=O)[C@@H]2CCCN2C(=O)[C@H](CC(C)C)NC(=O)[C@@H](C)C(=O)[C@H](C(C)C)OC(=O)C[C@@H]1O` [Compound 18, N^α -Acetyldidemnin A] (Ac-[dNMeL]T[X1]LP[NMeY](Me); ester 2-C) are > 10000 nM, > 10 µg/mL, 0.027 ng/mL, 10.57 and 0.39 nM.
Turning to `CCC(=O)N(C)[C@H](CC(C)C)C(=O)N[C@@H]1C(=O)N[C@H]([C@@H](C)CC)[C@@H](O)CC(=O)O[C@@H](C(C)C)C(=O)[C@H](C)C(=O)N[C@@H](CC(C)C)C(=O)N2CCC[C@H]2C(=O)N(C)[C@@H](Cc2ccc(OC)cc2)C(=O)O[C@@H]1C` [Compound 19, N^α -Propionyldidemnin A] (Propionyl-[dNMeL]T[X1]LP[NMeY](Me); ester 2-C), the entries for the “cytoxicity to lymphocytes LcV, LC50” value in series [1] and in series [1] (highest concentration 10 μg/mL) were 6500 nM and 6.50 µg/mL, respectively. Besides, the “two-way mixed lymphocyte reaction” value in series [2] was 0.37 ng/mL. In series [2], the negative-log IC50 (pIC50) is 9.43. The “cytotoxicity to lymphocytes LbV, LC50” value in series [3] came to 0.068 nM.
Turning to `CCCC(=O)N(C)C(CC(C)C)C(=O)NC1C(=O)NC(C(C)CC)C(O)CC(=O)OC(C(C)C)C(=O)C(C)C(=O)NC(CC(C)C)C(=O)N2CCCC2C(=O)N(C)C(Cc2ccc(OC)cc2)C(=O)OC1C` (stereo not drawn) [Compound 20, N^α -n-Butyryldidemnin A] (Butyryl-[NMeL]T[X7]LP[NMeY](Me); ester 2-C; configuration not given here), the “cytoxicity to lymphocytes LcV, LC50” value in series [1] was determined as 99 nM. Besides, in series [2], the “two-way mixed lymphocyte reaction” value turned out to be 0.30 ng/mL and the pIC50 is 9.52. The “cytotoxicity to lymphocytes LbV, LC50” value in series [3] is 0.074 nM.
Regarding `CCCCC(=O)N(C)[C@H](CC(C)C)C(=O)N[C@@H]1C(=O)N[C@H]([C@@H](C)CC)[C@@H](O)CC(=O)O[C@@H](C(C)C)C(=O)[C@H](C)C(=O)N[C@@H](CC(C)C)C(=O)N2CCC[C@H]2C(=O)N(C)[C@@H](Cc2ccc(OC)cc2)C(=O)O[C@@H]1C` [Compound 21, N^α -Pentanoyldidemnin A] (Pentanoyl-[dNMeL]T[X1]LP[NMeY](Me); ester 2-C), in series [1], the “cytoxicity to lymphocytes LcV, LC50” value came to 9700 nM. Also, the “cytoxicity to lymphocytes LcV, LC50” value in series [1] (highest concentration 10 μg/mL) is > 10 µg/mL. Also, in series [2], the “two-way mixed lymphocyte reaction” value came out at 0.48 ng/mL and the negative-log IC50 (pIC50) is 9.32. The “cytotoxicity to lymphocytes LbV, LC50” value in series [3] amounted to 0.059 nM.
On the same counts, the results for `CCCCCC(=O)N(C)[C@H](CC(C)C)C(=O)N[C@@H]1C(=O)N[C@H]([C@@H](C)CC)[C@@H](O)CC(=O)O[C@@H](C(C)C)C(=O)[C@H](C)C(=O)N[C@@H](CC(C)C)C(=O)N2CCC[C@H]2C(=O)N(C)[C@@H](Cc2ccc(OC)cc2)C(=O)O[C@@H]1C` [Compound 22, N^α -Hexanoyldidemnin A] (Hexanoyl-[dNMeL]T[X1]LP[NMeY](Me); ester 2-C) are 9600 nM, > 10 µg/mL, 0.022 ng/mL, 10.68 and 0.11 nM.
On the same counts, the results for `CCCCCCCC(=O)N(C)[C@H](CC(C)C)C(=O)N[C@@H]1C(=O)N[C@H]([C@@H](C)CC)[C@@H](O)CC(=O)O[C@@H](C(C)C)C(=O)[C@H](C)C(=O)N[C@@H](CC(C)C)C(=O)N2CCC[C@H]2C(=O)N(C)[C@@H](Cc2ccc(OC)cc2)C(=O)O[C@@H]1C` [Compound 23, N^α -Octanoyldidemnin A] (Octanoyl-[dNMeL]T[X1]LP[NMeY](Me); ester 2-C) are > 9350 nM, > 10 µg/mL, 5.50 ng/mL, 8.29 and 21 nM.
On the same counts, the results for `CCCCCCCCCCCC(=O)N(C)[C@H](CC(C)C)C(=O)N[C@@H]1C(=O)N[C@H]([C@@H](C)CC)[C@@H](O)CC(=O)O[C@@H](C(C)C)C(=O)[C@H](C)C(=O)N[C@@H](CC(C)C)C(=O)N2CCC[C@H]2C(=O)N(C)[C@@H](Cc2ccc(OC)cc2)C(=O)O[C@@H]1C` [Compound 24, N^α -Dodecanoyldidemnin A] (Lauroyl-[dNMeL]T[X1]LP[NMeY](Me); ester 2-C) are > 8900 nM, > 10 µg/mL, 119 ng/mL, 6.97 and 160 nM.
Take `CCCCCCCCCCCCCCCCCC(=O)N(C)[C@H](CC(C)C)C(=O)N[C@@H]1C(=O)N[C@H]([C@@H](C)CC)[C@@H](O)CC(=O)O[C@@H](C(C)C)C(=O)[C@H](C)C(=O)N[C@@H](CC(C)C)C(=O)N2CCC[C@H]2C(=O)N(C)[C@@H](Cc2ccc(OC)cc2)C(=O)O[C@@H]1C` [Compound 25, N^α -Octadecanoyldidemnin A] (Stearoyl-[dNMeL]T[X1]LP[NMeY](Me); ester 2-C): the “cytoxicity to lymphocytes LcV, LC50” value in series [1] is > 8500 nM; in series [1] (highest concentration 10 μg/mL), > 10 µg/mL. Further, the “two-way mixed lymphocyte reaction” value in series [2] came out at 6040 ng/mL. Besides, the pIC50 in series [2] was 5.29. Also, the “cytotoxicity to lymphocytes LbV, LC50” value in series [3] came to 2700 nM.
